Assay [1] relates to HCV genotype 1b (Con-1) subgenomic replicon with NS3 resistance mutation D168V in Huh-7 cells. The assay can be described thus: HCV replicon RNA replication assay (NS3 protease variants), genotype 1b D168V. Type of assay: cell-based. Conditions: Hepatitis C virus.
In assay [2] the test system is HCV genotype 1a (strain H77) subgenomic replicon with NS3 resistance mutation R155K in Huh-7 cells. The assay can be described thus: HCV replicon RNA replication assay (NS3 protease variants), genotype 1a R155K. Type of assay: cell-based. Conditions: Hepatitis C virus.
Where [3] appears, read: Huh-7, read-out: D168V 1b Ec50 (nM).
[4] abbreviates: Huh-7, read-out: R155K 1a Ec50 (nM).

Read-outs that look alike come from different tables or passages of the source.

This is an account of results in patent publication US20110294778A1, “HEPATITIS C INHIBITOR COMPOUNDS” (priority 2009, published 2011).

The term EC50 denotes the concentration needed to bring the measured effect to its halfway point. Consider `Cc1c(O)ccc2c(O[C@@H]3C[C@H]4C(=O)N[C@]5(C(=O)NS(=O)(=O)C6(C)CC6)C[C@H]5/C=C\CCCCC[C@H](NC(=O)N(C)C)C(=O)N4C3)cc(OC(C)C)nc12` [Compound 2022, (2R,6S,12Z,13aS,14aR,16aS)-6-[(dimethylcarbamoyl)amino]-2-{[7-hydroxy-8-methyl-2-(propan-2-yloxy)quinolin-4-yl]oxy}-N-[(1-methylcyclopropyl)sulfonyl]-5,16-dioxo-1,2,3,6,7,8,9,10,11,13a,14,15,16,16a-tetradecahydrocyclopropa[e]pyrrolo[1,2-a][1,4]diazacyclopentadecine-14a(5H)-carboxamide], for which the EC50 was 1.8 nM in assay [1] (Huh-7, 72 h, read-out: D168V 1b EC50 (nM)) and 4.9 nM in assay [2] (Huh-7, 72 h, read-out: R155K 1a EC50 (nM)).

Regarding `CC[C@@H]1C[C@]1(NC(=O)[C@@H]1C[C@@H]2CN1C(=O)[C@H](C(C)(C)C)NC(=O)OCC(C)(C)CCCCc1cccc3c1CN(C3)C(=O)O2)C(=O)NS(=O)(=O)C1CC1` [reference compound], the EC50 in assay [1] (setting [3]) came out at 4400 nM; in assay [2] (setting [4]), 1200 nM.

Take `CC(C)(C)OC(=O)N[C@H]1CCCCC/C=C\C2C[C@@]2(C(=O)NS(=O)(=O)C2CC2)NC(=O)[C@@H]2C[C@@H](OC(=O)N3Cc4cccc(F)c4C3)CN2C1=O` (some centres unmarked) [reference compound]: the figures for the EC50 in assay [1] (setting [3]) and in assay [2] (setting [4]) were 120 nM and 690 nM, respectively.

With `COc1ccc2c(C[C@H]3CC4C(=O)N(C)CCCC/C=C\[C@H]5C[C@]5(C(=O)NS(=O)(=O)C5CC5)NC(=O)[C@@H]4C3)cc(-c3nc(C(C)C)cs3)nc2c1C` (some centres unmarked) [reference compound], the EC50 in assay [1] (setting [3]) came out at 4400 nM; in assay [2] (setting [4]), 300 nM.
